Measured values reported in patent US8039013B2, “Synergistic fungidical active substance combinations” (Bayer CropScience AG, priority 2004, dated 2011).

System: Pyrenophora teres
Assay: Pyrenophora teres test (barley)/shoot treatment, field experiment
Type: in vivo, Pyrenophora teres on barley
Conditions: shoot treatment after flag leaf emergence, 62.5 g/ha, scoring long-term effect, 41 days post-application
Procedure: Pyrenophora teres Test (Barley)/shoot Treatment, Field Experiment
To prepare a suitable preparation of active substance, a “commercially available” formulation of active substance or active substance combination is diluted with water to give the desired concentration.
The active substance preparation is applied at the application rate stated, after the flag leaf has emerged.
The evaluation is carried out at the point in time at which the disease symptoms are complete and readily recognizable. In this context, 0% means an efficacy which corresponds to that of the control, while an efficacy of 100% means that no disease is observed.
The expected efficacy in % of the untreated control was calculated using the equation
In this equation, x and y mean the efficacy—expressed in % of the untreated control—which the two products achieve when applied separately. If the actual efficacy of the active substance combination exceeds the value for the expected efficacy (E) as calculated by the above formula, then the effect is superadditive, i.e. a synergistic effect exists.

Cn1cc(C(=O)Nc2ccc(F)cc2-c2ccc(Cl)c(Cl)c2)c(C(F)F)n1 [III-23, N-(3′,4′-dichloro-5-fluoro-1,1′-biphenyl-2-yl)-3-(difluoromethyl)-1-methyl-1H-pyrazole-4-carboxamide]
Efficacy in % found: 40%
